Laboratory results: US7253295B2, “Chloride channel opener” (Sucampo AG, priority 2001, dated 2007)
“And” between values parts separate entries of the source, which are not always exact repeats. Identical values can stand only once.

Assays:
[1] = test system: CFBE41o- cells; assay: Short-circuit current in CFBE41o- cells (Test Example 2); format: cell-based, Human; details: 1 μM, 1% DMSO
Method: 16HBE14o- cells, a Human airway cell line derived from a healthy individual, which contain ClC-2 and the Cystic Fibrosis Transmembrane Regulator, Cl channel (CFTR); and CFBE41o- cells, a Human airway cell line derived from cystic fibrosis patients, which contain functional form of ClC-2 and defective form of CFTR (ΔF508 CFTR) were used. Both cells were cultured in MEM supplemented with 10% FBS (Hyclone), […] 1-glutamine and penicillin/streptomycin in flasks coated with fibronectin/collagen/BSA. When desired, the cells were plated on 0.3 cm^2 collagen-coated permeable filters (Biocoat). After 24 hrs, the apical medium was removed so that the cells were grown in air-water interface. While they were grown in air-water interface, the basolateral side of the cells was fed with the medium and the medium was changed every other day. The cells were allowed to grow to confluence.
Short-circuit current measurements were used to evaluate Cl transport in polarized, confluent cultures of the cells grown in air-water interface. A plexiglass chamber for short-circuit current measurements in confluent cell monolayers grown on the 0.3 cm^2 permeable support filters was used (World Precision Instruments, Sarasota, Fla.). Electrical measurements were made with a 7402C voltage clamp device (Bioengineering Department, Iowa University). […]

[2] = test system: Chloride Ion Transport into Lacrimal Fluid; assay: Chloride ion transport into lacrimal fluid in rabbits (Test Example 8); format: in vivo, male white rabbits
Method: Physiological saline, eye drops vehicle, or eye drops containing 0.0001% or 0.001% of Compound 1 was instilled to male white rabbits in the volume of 30 μL/eye. […] The collected lacrimal fluid was diluted five fold with distilled water, and the concentration of chloride ions was measured with a chloride counter (CL-7, Hiranuma Sangyo Co. Ltd.). Student's t-test and Wilcoxon's test were used in the comparison of the control group and the groups receiving Compound 1 in each dose. P values less than 0.05 were considered to be statistically significant.

[3] = test system: Chloride Ion Transport into Intestinal Fluid; assay: Chloride ion transport into intestinal fluid of rats (Test Example 6); format: in vivo, male Wistar rats; details: for Chloride Ion Concentration in Intestinal Fluid, Mean ± S.E.: 30 minutes after administration
Method: Compound 1 (13,14-dihydro-15-keto-16,16-difluoro-prostaglandin E1) of 1, 10 or 100 μg/kg in the volume of 5 mL/kg was orally administered to male Wistar rats (six weeks old, weight:180-210 g) that had been fasted for at least 16 hours. The control group received the same volume of vehicle (distilled water containing 0.5% ethanol and 0.01% polysorbate 80). Thirty minutes after the administration, the animals were subjected to laparotomy under ether anesthesia. The top portion of the duodenum and the end portion of the ileum were ligated respectively, and the bowel was extirpated. The intestinal fluid of each animal was collected and centrifuged by 10,000×g for 5 minutes. Supernatant was collected, and the concentration of chloride ion in the supernatant of intestinal fluid was measured with a chloride counter (CL-7, Hiranuma Sangyo Co., Ltd.). Dunnett's test was used in the comparison of the control group and the groups receiving Compound 1 in each dose. P values less than 0.05 were considered to be statistically significant.

CCCCC(F)(F)[C@@]1(O)CC[C@H]2[C@@H](CC(=O)[C@@H]2CCCCCCC(=O)O)O1 [Compound 1, (−)-7-[(2R,4aR,5R,7aR)-2-(1,1-difluoropentyl)-2-hydroxy-6-oxoperhydrocyclopenta[b]pyran-5-yl]heptanoic acid]
Short-Circuit Current (change) [1]: 5.0±0.04 μA/cm^2 and 5.0 ± 0.4 μA/cm^2 | Effect on concentration of chloride ions in the lacrimal fluid (in words) ([2]; 0.0001% and 0.001% eye drops, compared with control group): increased the concentration of chloride ions in the lacrimal fluid in a dose-dependant manner | Chloride Ion Concentration in lacrimal fluid, Mean ± S.E. ([2]; 0.0001% eye drops, 30 μL/eye, Pre (0 hour)): 136.7 ± 3.6 mEq/L | Chloride Ion Concentration in lacrimal fluid, Mean ± S.E. ([2]; 0.0001% eye drops, 2 hr after instillation): 123.4 ± 5.2 mEq/L | Chloride Ion Concentration in lacrimal fluid, Mean ± S.E. ([2]; 0.0001% eye drops, 4 hr after instillation): 136.8 ± 2.3 mEq/L | Chloride Ion Concentration in lacrimal fluid, Mean ± S.E. ([2]; 0.0001% eye drops, 6 hr after instillation): 136.8 ± 2.0 mEq/L | Chloride Ion Concentration in lacrimal fluid, Mean ± S.E. ([2]; 0.0001% eye drops, 8 hr after instillation): 140.8 ± 2.8 mEq/L | Chloride Ion Concentration in lacrimal fluid, Mean ± S.E. ([2]; 0.001% eye drops, 30 μL/eye, Pre (0 hour)): 135.4 ± 4.0 mEq/L | Chloride Ion Concentration in lacrimal fluid, Mean ± S.E. ([2]; 0.001% eye drops, 2 hr after instillation): 152.9 ± 7.7^[##] mEq/L | Chloride Ion Concentration in lacrimal fluid, Mean ± S.E. ([2]; 0.001% eye drops, 4 hr after instillation): 151.4 ± 2.9 mEq/L | Chloride Ion Concentration in lacrimal fluid, Mean ± S.E. ([2]; 0.001% eye drops, 6 hr after instillation): 138.9 ± 3.3 mEq/L | Chloride Ion Concentration in lacrimal fluid, Mean ± S.E. ([2]; 0.001% eye drops, 8 hr after instillation): 138.8 ± 1.6 mEq/L | Chloride Ion Concentration in Intestinal Fluid, Mean ± S.E. ([3]; 1 μg/kg P.O.): 82.2 ± 7.0 mEq/L | Chloride Ion Concentration in Intestinal Fluid, Mean ± S.E. ([3]; 10 μg/kg P.O.): 110.1 ± 5.6 mEq/L | Chloride Ion Concentration in Intestinal Fluid, Mean ± S.E. ([3]; 100 μg/kg P.O.): 126.6 ± 2.4 mEq/L | Effect on concentration of chloride ions in the bowel (in words) ([3]; 1, 10 and 100 μg/kg P.O.): increased the concentration of chloride ions in the bowel in a dose-dependant manner
